In paper doi:10.64898/2026.03.17.711623, “Polypharmacology is an enduring and nearly universal property of kinase inhibitors” (bioRxiv, 2026):

Biological target: T1, YES (Homo sapiens, UniProt P07947)
T1 construct: gene YES1
T1 sequence (P07947 whole entry): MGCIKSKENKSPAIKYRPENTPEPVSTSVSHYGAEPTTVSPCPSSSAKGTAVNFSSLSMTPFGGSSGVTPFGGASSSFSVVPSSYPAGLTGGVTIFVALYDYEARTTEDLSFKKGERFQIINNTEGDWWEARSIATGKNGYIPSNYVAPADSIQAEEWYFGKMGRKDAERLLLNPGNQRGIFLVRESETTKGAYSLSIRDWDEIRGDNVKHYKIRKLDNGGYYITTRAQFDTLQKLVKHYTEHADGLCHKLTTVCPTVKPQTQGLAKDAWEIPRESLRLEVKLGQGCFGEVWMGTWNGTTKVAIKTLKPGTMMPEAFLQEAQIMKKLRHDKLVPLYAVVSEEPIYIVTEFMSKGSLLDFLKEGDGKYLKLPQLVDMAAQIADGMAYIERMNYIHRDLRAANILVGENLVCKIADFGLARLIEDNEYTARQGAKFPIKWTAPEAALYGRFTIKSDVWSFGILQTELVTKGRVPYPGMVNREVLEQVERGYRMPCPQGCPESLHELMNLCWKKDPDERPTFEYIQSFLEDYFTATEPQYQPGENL

With `Cc1cc(C(=O)Nc2cc(Oc3ccc4nc(NC(=O)C5CC5)cn4n3)ccc2C)n(C)n1` [HMSL12071, TAK-593] the Kd was 0.423 µM.
